Results as given in US20100029012A1, “Method for identifying modulators of the NRF2-KEAP1-AREP pathway” (priority 2006, published 2010).

Columns and labels:
[1] = target: T1, His-tagged Keap1-kelch domain polypeptide (Homo sapiens, UniProt Q14145); test: Antibody-based binding assay, displacement of 3H-labeled Nrf2 Peptide 2; details: Keap1-kelch domain polypeptide immobilized via anti-His tag antibody; about 1 nm to about 100 μM; FIG. 2
T1 construct: the Keap1-kelch domain polypeptide comprises amino acid residues 322 to 609 of the human Keap1 protein; made in house; host or cells: E. coli Rosetta2 BL21 pLysS, plasmid pET15b-Keap1-kelch domain
From the text: This example provides a protocol for an antibody-based binding assay for identifying activators of the Nrf2-Keap1 system. Because Keap1 protein's or Keap1-kelch domain polypeptide's binding to the assay plate surface is not dependent on divalent metal cations such as nickel, the antibody-based assay is also useful for determining whether the competitive effect observed in an ion-based assay was a result of the analyte competing with binding of the labeled Peptide 2 with the Keap1-kelch domain or with the binding of the Keap1 protein or Keap1-kelch domain polypeptide with divalent cations on the plate. In general, the assay is performed as follows.
One μg/mL of mouse-derived anti-His tag antibody (Catalog No. 35370, Quiagen, Valencia, Calif.) is added to anti-mouse IgG-coated white plates (Catalog No. 15234, Pierce Biotechnology, Inc.) and incubated at room temperature for two hours. The plate is then washed with four chamber volumes of PBS to remove any excess antibody.
Controls include […] unlabeled Nrf2 Peptide 2 and 0.5% DMSO.
During the last 15 minutes of the 4° C. incubation, one L of cold PBS-T is added to the Liquid 1 wash bottle of the EMBLA 96/384 plate washer (Molecular Devices Corporation, Sunnyvale, Calif.). The instrument is primed using program ‘A1’ a minimum of three times. […]

[2] = system: His tagged Green Fluorescent Protein (GFP); details: relative to DMSO; FIG. 3
Procedure: In this assay, His tagged Green Fluorescent Protein (GFP) retention on a divalent metal cation surface is monitored in the presence of analytes.
Stock solutions containing analytes at various concentrations or 500 nL DMSO and controls are transferred into the wells of a CHOICECOAT metal chelate white 384 well plates (Catalog No. NC15140, Pierce Biotechnology, Inc.). The volume is 500 nL per well. Controls include 100 μM unlabeled Peptide 2 and 0.5% DMSO.
An assay solution containing one μg His tagged GFP protein in PBS (per well) is prepared and 50 μL of this assay solution is dispensed into each well of the 384 well plates. The plates are covered and incubated at room temperature for two hours. Following the room temperature incubation, the plates are cooled by incubating in a 4° C. refrigerator for one hour. The plates are then washed by aspirating the well, adding 80 uL of PBS-T, aspirating the well, adding 80 uL of PBS-T, and aspirating the well.

[3] = target: T2, recombinant human His-tagged Keap1-kelch domain polypeptide (human, UniProt Q14145 322-609); test: method not stated; binding affinity for the kelch domain
T2 construct: domain: kelch domain; Expressed in E. coli from pET15b between NdeI and BamHI; also called recombinant Keap1-kelch domain; kelch domain of the Keap1 protein; not shown: N-terminal six-histidine tag from vector pET15b
T2 sequence (Q14145 322-609): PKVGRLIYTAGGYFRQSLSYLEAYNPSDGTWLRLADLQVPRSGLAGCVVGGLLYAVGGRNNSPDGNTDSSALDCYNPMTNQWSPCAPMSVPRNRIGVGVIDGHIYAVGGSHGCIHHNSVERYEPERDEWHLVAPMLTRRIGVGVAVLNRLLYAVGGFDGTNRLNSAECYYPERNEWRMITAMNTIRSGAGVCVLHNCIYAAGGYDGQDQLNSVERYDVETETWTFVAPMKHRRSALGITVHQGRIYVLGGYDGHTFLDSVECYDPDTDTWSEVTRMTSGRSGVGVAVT

T1 sequence (Q14145 322-609): as above

Molecule | competition with labeled Peptide 2 for binding to the kelch domain (result in words) [1] | percent inhibition of binding of the GFP to the nickel on the surface of the plate [2] [%] | binding affinity [3] [nM]
CC[C@H](C)[C@H](NC(=O)[C@@H]1CCCN1C(=O)[C@H](CC(C)C)NC(=O)[C@H](Cc1ccccc1)NC(=O)[C@H](CCC(=O)O)NC(=O)CNC(=O)[C@@H](NC(=O)[C@H](CCC(=O)O)NC(=O)[C@H](CCC(=O)O)NC(=O)[C@H](CC(=O)O)NC(=O)[C@H](CC(C)C)NC(=O)[C@H](CCC(N)=O)NC(=O)[C@@H](N)CC(C)C)[C@@H](C)O)C(=O)N[C@@H](CCC(N)=O)C(=O)O [Peptide 2, NH2-LQLDEETGEFLPIQ-OH] | result from this assay expected for an analyte that competes | 0 | 
LLVDGETGESFPAQ [Nrf1 peptide LLVDGETGESFPAQ] |  |  | ~397
RKRNVESGEEELAS [Pgam5 peptide RKRNVESGEEELAS] |  |  | ~626
